Bridge positions count the residues as written; N and C are the ends. Square brackets hold non-standard residues; d marks the D form. Peptide text beside a SMILES is read from it. * marks the point of attachment. Phe(3-OCH2COOH) = N[C@@H](Cc1cccc(OCC(=O)O)c1)C(=O)O; Phe(4-NO2) = N[C@@H](Cc1ccc([N+](=O)[O-])cc1)C(=O)O; Phe(4-COOH) = N[C@@H](Cc1ccc(C(=O)O)cc1)C(=O)O; Bip = N[C@@H](Cc1ccc(-c2ccccc2)cc1)C(=O)O; Phe(3-Me) = Cc1cccc(C[C@H](N)C(=O)O)c1; Val(3-OH) = CC(C)(O)[C@H](N)C(=O)O; 3Pal = N[C@@H](Cc1cccnc1)C(=O)O; Cha = N[C@@H](CC1CCCCC1)C(=O)O; Cit = NC(=O)NCCC[C@H](N)C(=O)O; NMeNle = CCCC[C@H](NC)C(=O)O; NMeS = CN[C@@H](CO)C(=O)O; dDab = NCC[C@@H](N)C(=O)O; Carboxymethyl = O=C(O)C*; NMeA = CN[C@@H](C)C(=O)O; Dab = NCC[C@H](N)C(=O)O; Dap = NC[C@H](N)C(=O)O
What follows are compounds tested against T1, PE-labeled human PD-L1-Ig binding to Jurkat cell line over-expressing human PD-1 (Jurkat-PD-1) (Homo sapiens, UniProt Q15116) (assay: Jurkat-PD-1 Cell Binding High-Content Screening Assay (CBA): Method 1). Settings: Jurkat-hPD-1 cells, PE-labeled PD-L1-Ig 20 nM final; read-out: Jurkat HPDL1 PD1 IC50 (uM) (Method 1).
T1 construct: expressed in transfected cells; host or cells: Jurkat
T1 sequence (Q15116 25-288): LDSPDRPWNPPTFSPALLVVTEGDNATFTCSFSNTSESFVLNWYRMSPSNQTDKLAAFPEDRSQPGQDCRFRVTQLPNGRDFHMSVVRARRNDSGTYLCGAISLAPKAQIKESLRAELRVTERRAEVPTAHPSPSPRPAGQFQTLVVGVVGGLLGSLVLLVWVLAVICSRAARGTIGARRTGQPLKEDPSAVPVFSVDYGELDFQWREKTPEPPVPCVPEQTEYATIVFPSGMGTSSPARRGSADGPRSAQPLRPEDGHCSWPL
Procedure: Phycoerythrin (PE) was covalently linked to the Ig epitope tag of human PD-L1-Ig and fluorescently-labeled PD-L1-Ig was used for binding studies with a Jurkat cell line over-expressing human PD-1 (Jurkat-PD-1). Briefly, 8×10^3 Jurkat-hPD-1 cells were seeded into 384 well plates in 20 μl of DMEM supplemented with 10% fetal calf serum. 100 nl of compound was added to cells followed by incubation at 37° C. for 2 hours. Then, 5 μl of PE-labeled PD-L1-Ig (20 nM final), diluted in DMEM supplemented with 10% fetal calf serum. […] Data was collected and processed using a Cell Insight NXT High Content Imager and associated software.

Compound | IC50 [µM]
CC(C)C[C@@H]1NC(=O)[C@H](CCN)NC(=O)[C@@H](CC(C)C)NC(=O)[C@H](CO)N(C)C(=O)[C@H](C(C)C)NC(=O)[C@H](Cc2ccc(-c3ccccc3)cc2)NC(=O)[C@H](C(C)C)NC(=O)[C@H](Cc2c[nH]c3ccccc23)NC(=O)[C@H](CC(=O)O)NC(=O)[C@H](Cc2ccc(O)cc2)NC(=O)[C@H](CC(N)=O)NC(=O)CSC[C@@H](C(=O)N[C@@H](C)C(N)=O)NC(=O)[C@H]([C@@H](C)O)NC(=O)[C@H](C(C)C)NC1=O [Compound 1370] ({CH2CO}-NYDWV[Bip]V[NMeS][dL][Dab]LVTCA-NH2; thioether N-14) | 0.01
CC(C)C[C@@H]1NC(=O)[C@H](CCN)NC(=O)[C@@H](CC(C)C)NC(=O)[C@H](C)N(C)C(=O)[C@H](CCCNC(=N)N)NC(=O)[C@H](Cc2ccc(-c3ccccc3)cc2)NC(=O)[C@H](C(C)C)NC(=O)[C@H](Cc2c[nH]c3ccccc23)NC(=O)[C@H](CC(=O)O)NC(=O)[C@H](Cc2ccc([N+](=O)[O-])cc2)NC(=O)[C@H](CC(N)=O)NC(=O)CSC[C@@H](C(=O)N[C@@H](C)C(N)=O)NC(=O)[C@H]([C@@H](C)O)NC(=O)[C@H](C(C)C)NC1=O [Compound 1188] ({CH2CO}-N[Phe(4-NO2)]DWV[Bip]R[NMeA][dL][Dab]LVTCA-NH2; thioether N-14) | 0.09
CC(C)C[C@@H]1NC(=O)[C@H](CCN)NC(=O)[C@@H](CC(C)C)NC(=O)[C@H](C)N(C)C(=O)[C@H](CCCNC(N)=O)NC(=O)[C@H](Cc2ccc(-c3ccccc3)cc2)NC(=O)[C@H](C(C)C)NC(=O)[C@H](Cc2c[nH]c3ccccc23)NC(=O)[C@H](CC(=O)O)NC(=O)[C@H](Cc2ccc(C(=O)O)cc2)NC(=O)[C@H](Cc2cccnc2)NC(=O)CSC[C@@H](C(=O)N[C@@H](C)C(N)=O)NC(=O)[C@H]([C@@H](C)O)NC(=O)[C@H](C(C)C)NC1=O [Compound 1332] ({CH2CO}-[3Pal][Phe(4-COOH)]DWV[Bip][Cit][NMeA][dL][Dab]LVTCA-NH2; thioether N-14) | 0.03
CC(C)C[C@@H]1NC(=O)[C@H](CCN)NC(=O)[C@@H](CC(C)C)NC(=O)[C@H](C)N(C)C(=O)[C@H](CCCNC(=N)N)NC(=O)[C@H](Cc2ccc(-c3ccccc3)cc2)NC(=O)[C@H](C(C)C)NC(=O)[C@H](Cc2c[nH]c3ccccc23)NC(=O)[C@H](CC(=O)O)NC(=O)[C@H](Cc2cccc(OCC(=O)O)c2)NC(=O)[C@H](CC(N)=O)NC(=O)CSC[C@@H](C(=O)N[C@@H](C)C(N)=O)NC(=O)[C@H]([C@@H](C)O)NC(=O)[C@H](C(C)C)NC1=O [Compound 1372] ({CH2CO}-N[Phe(3-OCH2COOH)]DWV[Bip]R[NMeA][dL][Dab]LVTCA-NH2; thioether N-14) | 0.14
CC(C)C[C@@H]1NC(=O)[C@H](CCN)NC(=O)[C@@H](CC(C)C)NC(=O)[C@H](C)N(C)C(=O)[C@H](CCCNC(=N)N)NC(=O)[C@H](Cc2ccc(-c3ccccc3)cc2)NC(=O)[C@H](C(C)C)NC(=O)[C@H](Cc2c[nH]c3ccccc23)NC(=O)[C@H](CC(=O)O)NC(=O)[C@H](Cc2ccc(O)cc2)NC(=O)[C@H](Cc2cnc[nH]2)NC(=O)CSC[C@@H](C(=O)N[C@@H](C)C(N)=O)NC(=O)[C@H]([C@@H](C)O)NC(=O)[C@H](C(C)C)NC1=O [Compound 1051] ({CH2CO}-HYDWV[Bip]R[NMeA][dL][Dab]LVTCA-NH2; thioether N-14) | 0.15

Second part, the compound after the results:

IC50 [µM] | Compound
0.03 | Cc1cccc(C[C@@H]2NC(=O)[C@H](CC(=O)O)NC(=O)[C@H](Cc3ccc(OCC(=O)O)cc3)NC(=O)[C@H](CN)NC(=O)CSC[C@@H](C(=O)N[C@@H](CCN)C(N)=O)NC(=O)[C@@H](CCN)NC(=O)[C@H](C(C)C)NC(=O)[C@H](CC3CCCCC3)NC(=O)[C@H](CCN)NC(=O)[C@@H](CC(C)C)NC(=O)[C@H](C)N(C)C(=O)[C@H](Cc3ccc(O)cc3)NC(=O)[C@H](Cc3ccc(-c4ccccc4)cc3)NC(=O)[C@H](Cc3ccc(O)cc3)NC2=O)c1 [Compound 1873] ({CH2CO}-[Dap]Y(Carboxymethyl)D[Phe(3-Me)]Y[Bip]Y[NMeA][dL][Dab][Cha]V[dDab]C[Dab]-NH2; thioether N-14)
0.01 | CC[C@H](C)[C@@H]1NC(=O)[C@H](Cc2ccc(-c3ccccc3)cc2)NC(=O)[C@H](C(C)C)NC(=O)[C@H](Cc2cccc(C)c2)NC(=O)[C@H](CC(=O)O)NC(=O)[C@H](Cc2ccc(C(=O)O)cc2)NC(=O)[C@H](Cc2ccc(OCC(=O)O)cc2)NC(=O)CSC[C@@H](C(=O)N[C@@H](C)C(N)=O)NC(=O)[C@H]([C@@H](C)O)NC(=O)[C@H](C(C)C)NC(=O)[C@H](CC(C)C)NC(=O)[C@H](CCN)NC(=O)[C@@H](CC(C)C)NC(=O)[C@H](C)N(C)C1=O [Compound 1572] ({CH2CO}-Y(Carboxymethyl)[Phe(4-COOH)]D[Phe(3-Me)]V[Bip]I[NMeA][dL][Dab]LVTCA-NH2; thioether N-14)
0.16 | CC(C)C[C@@H]1NC(=O)[C@H](Cc2c[nH]c3ccccc23)NC(=O)[C@H](CC(=O)O)NC(=O)[C@H](Cc2ccc(O)cc2)NC(=O)[C@H](Cc2ccccc2)NC(=O)CSC[C@@H](C(=O)NCC(N)=O)NC(=O)[C@H](CO)NC(=O)[C@H](C(C)C)NC(=O)[C@H](CC(C)C)NC(=O)[C@H](CC(N)=O)NC(=O)[C@@H](Cc2cnc[nH]2)NC(=O)[C@H](C)N(C)C(=O)[C@H](C(C)C)NC(=O)[C@H](Cc2ccc(-c3ccccc3)cc2)NC1=O [Compound 1797] ({CH2CO}-FYDWL[Bip]V[NMeA][dH]NLVSCG-NH2; thioether N-14)
0.1 | CC[C@H](C)[C@@H]1NC(=O)[C@H](Cc2ccc(-c3ccccc3)cc2)NC(=O)[C@H](C(C)(C)O)NC(=O)[C@H](Cc2cccc(C)c2)NC(=O)[C@H](CC(=O)O)NC(=O)[C@H](Cc2ccc(O)cc2)NC(=O)[C@H](CC(N)=O)NC(=O)CSC[C@@H](C(=O)N[C@H](C)C(N)=O)NC(=O)[C@H]([C@@H](C)O)NC(=O)[C@H](C(C)(C)O)NC(=O)[C@H](CC2CCCCC2)NC(=O)[C@H](CCN)NC(=O)[C@@H](CC(C)C)NC(=O)[C@H](C)N(C)C1=O [Compound 1694] ({CH2CO}-NYD[Phe(3-Me)][Val(3-OH)][Bip]I[NMeA][dL][Dab][Cha][Val(3-OH)]TC[dA]-NH2; thioether N-14)
0.06 | CCCC[C@H]1C(=O)N[C@@H](Cc2ccc(C(=O)O)cc2)C(=O)N[C@@H](CC(=O)O)C(=O)N[C@@H](Cc2cccc(C)c2)C(=O)N[C@@H](Cc2ccc(C(=O)O)cc2)C(=O)N[C@@H](Cc2ccc(-c3ccccc3)cc2)C(=O)N[C@@H](Cc2ccc(C(=O)O)cc2)C(=O)N(C)[C@@H](C)C(=O)N[C@H](CC(C)C)C(=O)N[C@@H](CCN)C(=O)N[C@@H](CC2CCCCC2)C(=O)N[C@@H](C(C)(C)O)C(=O)N[C@@H](CO)C(=O)N[C@H](C(=O)N[C@@H](CCN)C(N)=O)CSCC(=O)N1C [Compound 2205] ({CH2CO}-[NMeNle][Phe(4-COOH)]D[Phe(3-Me)][Phe(4-COOH)][Bip][Phe(4-COOH)][NMeA][dL][Dab][Cha][Val(3-OH)]SC[Dab]-NH2; thioether N-14)
